Tests used:
Design in all cases: dose 25 mg/kg
[1] = Plasma concentration in Wistar rat at 25 mg/kg after 1.5 hrs; type: ADME, organism-based
Plasma [2] = assay: Metabolic stability in Wistar rat plasma assessed as dehydro-alpha-lapachone level at 25 mg/kg after 1.5 hrs; type: ADME, organism-based; conditions: in vivo
Rattus norvegicus = assay: Toxicity in Wistar rat at 25 mg/kg; type: organism-based; conditions: in vivo
[3] = Plasma concentration in Wistar rat at 25 mg/kg after 12 hrs; type: ADME, organism-based
Plasma [4] = assay: Metabolic stability in Wistar rat plasma assessed as alpha-lapachone level at 25 mg/kg after 3 hrs; type: ADME, organism-based; conditions: in vivo
Plasma [5] = assay: Metabolic stability in Wistar rat plasma assessed as alpha-lapachone level at 25 mg/kg after 12 hrs; type: ADME, organism-based; conditions: in vivo
Plasma [6] = assay: Metabolic stability in Wistar rat plasma assessed as alpha-lapachone level at 25 mg/kg after 1.5 hrs; type: ADME, organism-based; conditions: in vivo

SMILES: CC(C)=CCC1=C(O)C(=O)c2ccccc2C1=O [LAPACHOL]
- concentration at 1.5 h [1]: 37000 ng/mL
- Drug metabolism (Plasma [2]): 0.6 µg/mL
- Activity (Rattus norvegicus): Non-toxic
- concentration at 12 h [3]: 2000 ng/mL
- Drug metabolism (Plasma [4]): 6 µg/mL
- Drug metabolism (Plasma [5]): 0.7 µg/mL
- Drug metabolism (Plasma [6]): 1.4 µg/mL
